How the values were obtained:
[1] = Permeability and efflux transporter substrate evaluation in Caco-2 cells; format: in vitro ADME; parameters: Papp A→B at 120 min / Papp B→A at 120 min / efflux ratio at 120 min / Papp at 120 min: dose or concentration left out as unconfirmed; conditions: human; for Papp at 120 min: Caco-2, pH 7.4, read-out: Classification Permeability; for Papp A→B at 120 min / Papp B→A at 120 min: pH 7.4, pH 7.40; for Papp A→B at 120 min: Caco-2, apical to basolateral; for Papp B→A at 120 min: Caco-2, basolateral to apical
Protocol: (§1) The cells were cultured in a carbon dioxide incubator for 21-28 days before being used for transport experiments. During this period, the culture medium was changed every four to five days.
(§2) This project uses Hank's balanced salt buffer (pH 7.40±0.05) containing 10 mM HEPES as the transport buffer. The culture medium was removed from the culture plate and the cells were washed twice with preheated transport buffer (approximately 75 μL and 40 mL of transport buffer for each apical well and basolateral receiver plate respectively). The donor solution and receiver solution were added to the corresponding cell plate wells (75 and 250 μL for each apical and basolateral well respectively), and the bidirectional transport experiment was started (apical to basolateral (A-B) and basolateral to apical (B-A)). The test concentration of the test substance was […], and two replicate wells were made for each dosing concentration. The test concentration of Digoxin was […], with dosing bidirectionally; the test concentrations of nadolol and metoprolol were both […], and they were dosed in one direction (A-B direction), and two replicate wells were made for each of the three control compounds.
(§3) The initial donor solution is the TO sample. After adding the sample, it was mixed with the transport buffer and stop solution in a certain proportion.
(§4) All samples were vortexed, and then centrifuged at 3220×g for 20 min at 20° C. A proper volume of supernatant was transferred to a sample assay plate, and the sample was stored at 2-8° C. if it was not analyzed immediately after the plate was sealed, and LC MS/MS method was used for analysis.
(§5) The Lucifer Yellow Rejection Assay was used to test the integrity of the Caco-2 cell layer.
(§6) The following formulas were used to calculate the apparent permeability coefficient (Papp, cm/s), efflux ratio (ER), and solution recovery (%) (% Solution Recovery).
(§7) [formula] [formula] [formula] • VR is the volume of the receiver side solution (side A is 0.075 mL, side B is 0.25 mL); Area is the relative surface area of the cell monolayer (0.0804 cm^2); Time is the incubation time (7200 s); C0 is the initial concentration (nM) of the test substance at the donor side or the peak area ratio of the control compound; VD is the volume of the donor side (side A is 0.075 mL, side B is 0.25 mL); CD and CR are the final concentration (nM) of the test substance at the donor side and the receiver side respectively or the peak area ratio of the control compound; • Lucifer yellow transmittance rate (% Lucifer Yellow) is calculated using the following formula:
(§8) [formula] • RFUApical and RFUBasolateral are the relative fluorescence intensity of lucifer yellow at the apical and basolateral sides respectively. VApical and VBasolateral are the sample loading volumes at the apical and basolateral sides respectively (0.075 and 0.25 mL respectively).

Caco-2 cells = test: as above; format: in vitro ADME; parameters: Papp A→B at 120 min / Papp B→A at 120 min / efflux ratio at 120 min / Papp at 120 min: dose or concentration left out as unconfirmed; conditions: Caco-2
Protocol: as §1, §2, §3, §4, §5, §6, §7, §8

HCT116 cells [2] = test: In vivo pharmacodynamic study of compound 1 in HCT116 tumor-bearing mice; parameters: species or system Balb/C Nude mice; conditions: 20 mg/kg once a day by gavage, vs sham group
From the text: Balb/C Nude mice, SPF grade, male, weighing 18-20 g, were purchased from Jiangsu Gempharmatech Co., Ltd.
HCT116 cells were purchased from ATCC.
Matrigel Matrix, Cat. No. 354248, was purchased from Becton, Dickinson and Company.
Kolliphor® HS 15, Cat. No. 42966, was purchased from Sigma-Aldrich.
(§9) a. Establishment of tumor-bearing mouse model: HCT116 cells in the logarithmic growth phase were taken and cultured, the cells were collected and counted, and then subcutaneously inoculated into Balb/C Nude mice at 1×10^6/mouse. The tumor volume and body weight of the mice were measured regularly. 7 days after inoculation, mice with tumor volume of 150 mm3 were randomly divided into groups and treated with corresponding drugs.
b. […] The administration was performed once a day by gavage for 21 consecutive days, and the tumor volume and body weight of the mice were measured regularly.
(§10) 3. Data processing: All data were organized in EXCEL, and One-way ANOVA analysis and drawing were performed using GraphPad Prism 8.0 software. Statistical significance was achieved when p<0.05.

[3] = Metabolic stability in rat liver microsomes; format: in vitro ADME
Protocol: (§11) a. Preparation of phosphate buffer: The phosphate buffer powder was dissolved in 100 mL of pure water to prepare a phosphate buffer solution with a pH of 7.4 and a concentration of 100 mM, which was stored in a 4° C. refrigerator for later use.
(§12) b. All samples as well as the reference testosterone were dissolved in DMSO to obtain a 10 mM stock solution. The 10 mM stock solution was diluted to 100 μM with acetonitrile to obtain a working solution for later use.
(§13) c. Preparation of liver microsome working solution: Each of the mouse, rat and human liver microsome stock solutions (at concentration of 20 mg/mL) was taken and diluted to 0.56 mg/mL with 100 mM phosphate buffer solution to obtain the liver microsome working solution.
(§14) d. Preparation of solution: An appropriate amount of MgCl2 was weighed and used to prepare a MgCl2 solution at a concentration of 60 mM using 100 mM phosphate buffer solution. An appropriate amount of NADPH was weighed and used to prepare a NADPH solution at a concentration of 20 mM using 100 mM phosphate buffer solution. An equal volume of 60 mM MgCl2 solution was added to prepare an NADPH working solution containing 10 mM NADPH and 30 mM MgCl2. An acetonitrile solution containing 20 ng/mL tolbutamide was prepared as the stop solution.
(§15) e. Liver microsome incubation: 2 μL of each compound and the positive drug testosterone working solution were added to 178 μL of liver microsome working solution (0.56 mg/mL), mixed gently, and pre-incubated in a vibrating constant temperature water bath pot at 37° C. for 10 min. After adding 20 μL of NADPH working solution, the mixture was placed in a vibrating constant temperature water bath pot at 37° C. and timed incubation was started for 5, 10, 20, 30 and 60 min.
(§16) f. Stopping reaction: After the corresponding time of incubation, 400 μL of stop solution was added to stop the reaction, and then the sample was immediately shaken for 1 min. The sample was centrifuged at 13500 rpm for 10 min at 10° C. After centrifugation, the supernatant was removed, diluted with water according to the needs of each compound, and analyzed by LC-MS. For the 0-minute sample, the stop solution was first added and mixed evenly with the liver microsomes, and then the NADPH working solution was added. For the negative control sample, 20 μL of 30 mM MgCl2 solution was added instead of the NADPH working solution.
(§17) T1/2 and CLint(mic) were calculated by the following formula.
(§18) [formula] [formula] • CLint(mic)=0.693/T1/2/liver microsomal protein concentration during incubation (mg/mL) • CLint(ver)=CLint(mic)*liver microsomal protein (mg)/liver weight (g)*liver weight to body weight ratio
(§19) Liver microsomal protein (mg)/liver weight (g): the value is 45 in both animal and human species.
(§20) Liver weight to body weight ratio: the parameters for mice, rats and humans are 88, 40 and 20 g/kg respectively.

[4] = Metabolic stability in mouse liver microsomes; format: in vitro ADME
Protocol: as §11, §12, §13, §14, §15, §16, §17, §18, §19, §20

[5] = Metabolic stability in human liver microsomes; format: in vitro ADME
Protocol: as §11, §12, §13, §14, §15, §16, §17, §18, §19, §20

HCT116 cells [6] = test: In vivo pharmacodynamic study of compound 18 in HCT116 tumor-bearing mice; parameters: species or system Balb/C Nude mice; conditions: 10 mg/kg once a day by gavage
Protocol: as §9, §10
1. Experiment materials: Same as Test example 5.
a. Establishment of tumor-bearing mouse model: Same as Test example 5.
b. […] The administration was performed once a day by gavage for 7 consecutive days, and the tumor volume and body weight of the mice were measured regularly.
3. Data processing: Same as Test example 5.

SMILES: CN1CCN(c2ccc(OC(F)(F)F)c(Nc3ncc4ccc5c(C(N)=O)nn(CCO)c5c4n3)c2)CC1 [Compound 1]
- Papp at 120 min [1]: 0.5 to 2.5 ×10⁻⁶ cm/s
- Papp A→B at 120 min [1]: 0.965 ×10⁻⁶ cm/s
- Papp B→A at 120 min [1]: 20.8 ×10⁻⁶ cm/s
- Classification Efflux transporter substrate (Caco-2 cells): Likely (ERa ≥ 2.00)
- tumor inhibition rate (HCT116 cells [2]; 11 days): 82.0%
- tumor inhibition rate (HCT116 cells [2]; 16 days): 86.5%
- tumor inhibition rate (HCT116 cells [2]; 21 days): 88.3%

SMILES: CN1CCN(c2ccc(OC(F)(F)F)c(Nc3ncc4ccc5c(C(N)=O)nn(CCF)c5c4n3)c2)CC1 [Compound 18]
- 60 min remaining amount [3]: 2.74%
- Clearance rate [3]: High
- CLint scaled at 1 µM ([3]; rat, pH 7.4): 505 mL/min/kg
- half-life at 1 µM ([3]; rat, pH 7.4): 4.94 min
- microsomal CLint at 1 µM ([3]; rat, pH 7.4, read-out: CLint(mic)): 281 µL/min/mg
- 60 min remaining amount [4]: 4.32%
- Clearance rate [4]: High
- CLint scaled at 1 µM ([4]; mouse, pH 7.4): 409 mL/min/kg
- half-life at 1 µM ([4]; mouse, pH 7.4): 13.4 min
- microsomal CLint at 1 µM ([4]; mouse, pH 7.4, read-out: CLint(mic)): 103 µL/min/mg
- 60 min remaining amount [5]: 7.83%
- Clearance rate [5]: High
- CLint scaled at 1 µM ([5]; human, pH 7.4): 78.7 mL/min/kg
- half-life at 1 µM ([5]; human, pH 7.4): 15.9 min
- microsomal CLint at 1 µM ([5]; human, pH 7.4, read-out: CLint(mic)): 87.4 µL/min/mg
- body weight decrease compared to before administration (HCT116 cells [6]; 5 days): 7.6%
- body weight decrease compared to before administration (HCT116 cells [6]; 7 days): 16.1%
- tumor inhibition rate (HCT116 cells [6]; 7 days, vs control group): 70.9%
- Papp at 120 min [1]: 0.5 to 2.5 ×10⁻⁶ cm/s
- Papp A→B at 120 min [1]: 2.03 ×10⁻⁶ cm/s
- Papp B→A at 120 min [1]: 3.36 ×10⁻⁶ cm/s
- Classification Efflux transporter substrate (Caco-2 cells): Very unlikely or not (ERa < 2.00)

From patent US20260176249A1, “PROTEIN KINASE INHIBITOR, PREPARATION METHOD THEREFOR, AND APPLICATION THEREOF” (SHANDONG LUYE PHARMACEUTICAL CO., LTD., priority 2021, published 2026)
